Data: US20240016942A1, “STAT DEGRADERS AND USES THEREOF” (Kymera Therapeutics, Inc., priority 2020, published 2024)

Biological target: T1, STAT3 (Homo sapiens, UniProt P40763)
T1 construct: expressed in transfected cells; host or cells: A549
Assay: STAT3 HiBiT degradation assay (Nano-Glo HiBiT lytic detection) in transfected A549 cells
Type: cell-based
Details: 24 h compound incubation, read-out: STAT3 HiBIT A549 degradation 24 h: Average external-Abs DC50
Protocol: Example 1. HiBiT Assay Protocol
Compound preparation and Cell seeding: The transfected A549 cells were harvested from dish into cell culture medium and cell numbers counted. Cells were diluted with culture medium to the desired density and 30 μL of cell suspension (about 2000 cells/well) were added into each well of a 384-well cell culture plate as designated and transferred into 37° C. 5% CO2 incubator for 24 h. Compounds were dissolved to 10 mM stock solution and 12 μL of the stock solution was transferred to a 384 LDV-plate. 3 fold, 10-point dilution was performed by transferring 4 μL compound into 8 μL DMSO using a TECAN (EVO200) liquid handler. 30 μl of diluted compound from compound source plate was transferred into the cell plate as designated by using Echo550 and transferred into 37° C. 5% CO2 incubator for 24 h.
Detection: Plates were removed from incubators and equilibrated at room temperature for 15 minutes. Nano-Glo Hibit Lytic Detection reagent (Promega Cat #N3040) was thawed and equilibrated to room temperature before the experiment. 30 μL of Nano-Glo Hibit Lytic Detection reagent was added into each well to be detected. The plates were held at room temperature for 10 min followed by reading on EnSpire.
Data analysis: The remaining activity was calculated following the formula: Remaining Activity (%)=100%×(Lumsample−LumNC)/(LumPC−LumNC). Calculate the IC50 by fitting the curve using Xlfit (v5.3.1.3), equation 201: fit=(A+((B−A)/(1+((x/C)^D)))); A: Botton; B: Top; C: IC50; and D: Slope.
The letter codes for STAT3 DC50 include: A (<0.01 μM), B (0.01-0.1 μM), C (0.1-1.0 μM), and D (>1.0 μM).

T1 sequence (P40763 whole entry): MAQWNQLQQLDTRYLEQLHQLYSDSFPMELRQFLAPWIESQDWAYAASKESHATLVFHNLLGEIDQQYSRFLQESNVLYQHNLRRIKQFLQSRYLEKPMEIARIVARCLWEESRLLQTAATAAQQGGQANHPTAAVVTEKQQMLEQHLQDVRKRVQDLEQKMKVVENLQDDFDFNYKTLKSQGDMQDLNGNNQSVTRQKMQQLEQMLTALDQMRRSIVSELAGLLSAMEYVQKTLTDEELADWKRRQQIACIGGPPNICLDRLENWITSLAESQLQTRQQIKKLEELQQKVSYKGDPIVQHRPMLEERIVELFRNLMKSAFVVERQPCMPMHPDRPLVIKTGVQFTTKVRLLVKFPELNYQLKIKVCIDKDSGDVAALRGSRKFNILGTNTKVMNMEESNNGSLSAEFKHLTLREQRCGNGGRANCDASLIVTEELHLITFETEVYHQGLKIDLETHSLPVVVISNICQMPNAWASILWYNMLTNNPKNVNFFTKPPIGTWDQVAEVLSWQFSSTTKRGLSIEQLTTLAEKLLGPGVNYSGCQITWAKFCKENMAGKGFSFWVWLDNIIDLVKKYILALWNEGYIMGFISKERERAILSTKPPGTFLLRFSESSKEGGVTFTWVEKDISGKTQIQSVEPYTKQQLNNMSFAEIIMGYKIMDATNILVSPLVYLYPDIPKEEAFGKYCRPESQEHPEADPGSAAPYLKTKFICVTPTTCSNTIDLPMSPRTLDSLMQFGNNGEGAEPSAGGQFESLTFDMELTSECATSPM

SMILES	DC50
CC(=O)N1CC[C@H]2CC[C@@H](C(=O)N[C@@H](CCC(N)=O)COc3cccc(CCCC(=O)N[C@H](C(=O)N4C[C@@H](O)C[C@H]4C(=O)N[C@@H](C)c4ccc(-c5scnc5C)cc4)C(C)(C)C)c3Cl)N2C(=O)[C@@H](NC(=O)c2cc3cc(C(=O)P(=O)(O)O)ccc3[nH]2)C1 [I-42]	> 1000 nM
CC(=O)N1CC[C@H]2CC[C@@H](C(=O)N[C@@H](CCC(N)=O)COc3cc(C)cc(CCCC(=O)N[C@H](C(=O)N4C[C@H](O)C[C@H]4C(=O)N[C@@H](C)c4ccc(-c5scnc5C)cc4)C(C)(C)C)c3F)N2C(=O)[C@@H](NC(=O)c2cc3cc(C(=O)P(=O)(O)O)ccc3[nH]2)C1 [I-78]	< 10 nM
Cc1ncsc1-c1ccc([C@H](C)NC(=O)[C@@H]2C[C@@H](O)CN2C(=O)[C@@H](NC(=O)CCCc2cccc(OC[C@H](CCC(N)=O)NC(=O)[C@@H]3CCCN3C(=O)CNC(=O)c3cc4cc(C(=O)P(=O)(O)O)ccc4[nH]3)c2Cl)C(C)(C)C)cc1 [I-13]	10 to 100 nM
Cc1ncsc1-c1ccc([C@H](C)NC(=O)[C@@H]2C[C@@H](O)CN2C(=O)[C@@H](NC(=O)CC2CCC(c3cccc(OC[C@H](CCC(N)=O)NC(=O)[C@@H]4Cc5cccc6c5N4C(=O)[C@@H](NC(=O)c4cc5cc(C(=O)P(=O)(O)O)ccc5[nH]4)CC6)c3Cl)CC2)C(C)(C)C)cc1 (some centres unmarked) [I-56]	100 to 1000 nM
Cn1c(=O)n(C2CCC(=O)NC2=O)c2ccc(C[C@H]3CC[C@@H](CC(=O)N4CC[C@H]5CC[C@@H](C(=O)N[C@@H](CCC(N)=O)C(=O)NCc6ccc(S(C)(=O)=O)cc6Cl)N5C(=O)[C@@H](NC(=O)c5cc6cc(C(=O)P(=O)(O)O)ccc6[nH]5)C4)CC3)cc21 (some centres unmarked) [I-45]	10 to 100 nM
CC(=O)N1CC[C@H]2CC[C@@H](C(=O)N[C@@H](CCC(N)=O)COc3cccc(CCCCC(=O)N[C@H](C(=O)N4C[C@@H](O)C[C@H]4C(=O)N[C@@H](C)c4ccc(-c5scnc5C)cc4)C(C)(C)C)c3Cl)N2C(=O)[C@@H](NC(=O)c2cc3cc(C(=O)P(=O)(O)O)ccc3[nH]2)C1 [I-43]	> 1000 nM
Cc1cc(CCCCCC(=O)N[C@H](C(=O)N2C[C@H](O)C[C@H]2C(=O)N[C@@H](C)c2ccc(-c3scnc3C)cc2)C(C)(C)C)c(F)c(OC[C@H](CCC(N)=O)NC(=O)[C@@H]2CC[C@@H]3CCCC[C@H](NC(=O)c4cc5cc(C(=O)P(=O)(O)O)ccc5[nH]4)C(=O)N32)c1 [I-4]	< 10 nM
Cn1c(=O)n(C2CCC(=O)NC2=O)c2ccc(CCCc3cccc(OC[C@H](CCC(N)=O)NC(=O)[C@@H]4CC[C@@H]5CCCC[C@H](NC(=O)c6cc7cc(C(=O)P(=O)(O)O)ccc7[nH]6)C(=O)N54)c3Cl)cc21 (some centres unmarked) [I-27]	> 1000 nM
CC(=O)N1CC[C@H]2CC[C@@H](C(=O)N[C@H](CCC(N)=O)COc3cccc(CCCCC(=O)N[C@H](C(=O)N4C[C@H](O)C[C@H]4C(=O)N[C@@H](C)c4ccc(-c5scnc5C)cc4)C(C)(C)C)c3Cl)N2C(=O)[C@@H](NC(=O)c2cc3cc(C(=O)P(=O)(O)O)ccc3[nH]2)C1 [I-24]	100 to 1000 nM
Cn1c(=O)n(C2CCC(=O)NC2=O)c2ccc(C[C@H]3CC[C@@H](CCN4CC[C@H]5CC[C@@H](C(=O)N[C@@H](CCC(N)=O)C(=O)NCc6ccc(S(C)(=O)=O)cc6)N5C(=O)[C@@H](NC(=O)c5cc6cc(C(=O)P(=O)(O)O)ccc6[nH]5)C4)CC3)cc21 (stereo partly drawn) [I-52, 2-[[(5S,8S,10aR)-8-[[(1S)-3-carbamoyl-1-[[(4-methanesulfonylphenyl)methyl]carbamoyl]propyl]carbamoyl]-6-oxo-3-[2-[(1s,4s)-4-[[1-(2,6-dioxopiperidin-3-yl)-3-methyl-2-oxo-1,3-benzodiazol-5-yl]methyl]cyclohexyl]ethyl]-octahydropyrrolo[1,2-a][1,5]diazocin-5-yl]carbamoyl]-1H-indole-5-carbonylphosphonic acid]	100 to 1000 nM
Cc1ncsc1-c1ccc([C@H](C)NC(=O)[C@@H]2C[C@@H](O)CN2C(=O)[C@@H](NC(=O)CCCc2cccc(OC[C@H](CCC(N)=O)NC(=O)[C@@H]3CC[C@@H]4CCN(C(=O)c5cccc(F)c5)C[C@H](NC(=O)c5cc6cc(C(=O)P(=O)(O)O)ccc6[nH]5)C(=O)N43)c2Cl)C(C)(C)C)cc1 [I-60]	10 to 100 nM
